Laboratory results published in patent US10947213B1 (Merck Patent GmbH, priority 2015, dated 2021).
Structures can show the parent of a compound that is named as a salt.

target: T1, TLR7/NFKb HEK cells (Homo sapiens, UniProt Q9NYK1); test: HEK Cell Assay (TLR7/NFKb reporter, Steady-Glo luciferase readout); assay type: cell-based; conditions: 30 min compound preincubation, then R*48 agonist for 5 hours, read-out: Potency
T1 construct: expressed in transfected cells; host or cells: HEK cells (TLR7/NFKb reporter line)
T1 sequence (Q9NYK1 27-1049): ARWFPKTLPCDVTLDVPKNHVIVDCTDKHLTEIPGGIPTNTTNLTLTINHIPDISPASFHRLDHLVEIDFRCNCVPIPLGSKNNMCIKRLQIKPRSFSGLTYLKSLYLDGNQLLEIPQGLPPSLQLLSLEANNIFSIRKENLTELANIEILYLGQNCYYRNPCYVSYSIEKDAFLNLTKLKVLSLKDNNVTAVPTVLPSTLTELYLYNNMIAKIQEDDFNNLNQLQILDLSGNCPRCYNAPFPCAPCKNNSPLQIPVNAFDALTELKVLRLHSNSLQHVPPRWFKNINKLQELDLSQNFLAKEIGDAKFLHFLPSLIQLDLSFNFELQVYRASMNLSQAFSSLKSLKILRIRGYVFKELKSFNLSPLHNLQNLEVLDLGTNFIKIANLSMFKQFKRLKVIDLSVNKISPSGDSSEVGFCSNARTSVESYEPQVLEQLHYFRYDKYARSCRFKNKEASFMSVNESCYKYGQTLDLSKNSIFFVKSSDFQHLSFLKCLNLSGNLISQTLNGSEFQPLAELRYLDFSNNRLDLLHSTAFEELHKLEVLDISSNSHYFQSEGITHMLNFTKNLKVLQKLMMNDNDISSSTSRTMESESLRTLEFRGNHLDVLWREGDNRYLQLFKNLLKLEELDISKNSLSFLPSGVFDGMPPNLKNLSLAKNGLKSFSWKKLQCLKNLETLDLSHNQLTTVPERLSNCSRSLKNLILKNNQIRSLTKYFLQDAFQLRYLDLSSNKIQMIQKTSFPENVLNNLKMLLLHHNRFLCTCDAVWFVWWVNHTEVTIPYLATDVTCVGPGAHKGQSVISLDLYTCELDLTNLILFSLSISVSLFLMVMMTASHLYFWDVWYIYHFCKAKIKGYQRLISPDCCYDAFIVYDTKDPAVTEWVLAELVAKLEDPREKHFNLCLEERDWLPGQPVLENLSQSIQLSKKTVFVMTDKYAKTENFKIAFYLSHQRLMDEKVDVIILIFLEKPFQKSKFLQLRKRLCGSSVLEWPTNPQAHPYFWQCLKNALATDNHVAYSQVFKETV
Outline: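 Steady-Glo luminescence after 5 h stimulation with R*48 agonist, following 30 min compound preincubation. Assay run in HEK cells carrying a TLR7/NFKb luciferase reporter, plated at 5000 cells/well and grown 24 h at 37° C (10% CO2) before treatment.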

IC50	SMILES
< 1000 nM	NC1CN(c2ccc(C(F)(F)F)c3ncccc23)CC(F)(F)C1 (stereo not drawn) [Compound 510, 5,5-Difluoro-1-(8-trifluoromethyl-quinolin-5-yl)-piperidin-3-ylamine]
< 1000 nM	CN1CCN(CC(=O)NC2CN(c3ccc(C(F)(F)F)c4ncccc34)CC(F)(F)C2)CC1 (stereo not drawn) [Compound 511, N-[5,5-Difluoro-1-(8-trifluoromethyl-quinolin-5-yl)-piperidin-3-yl]-2-(4-methyl-piperazin-1-yl)-acetamide]
1000 to 10000 nM	O=C(CN1CCOCC1)NC1CN(c2ccc(C(F)(F)F)c3ncccc23)CC(F)(F)C1 (stereo not drawn) [Compound 512, N-[5,5-Difluoro-1-(8-trifluoromethyl-quinolin-5-yl)-piperidin-3-yl]-2-morpholin-4-yl-acetamide]
1000 to 10000 nM	O=C(NC1CN(c2ccc(C(F)(F)F)c3ncccc23)CC(F)(F)C1)C(O)C1CC1 (stereo not drawn) [Compound 513, 2-Cyclopropyl-N-[5,5-difluoro-1-(8-trifluoromethyl-quinolin-5-yl)-piperidin-3-yl]-2-hydroxy-acetamide]
< 1000 nM	C[C@H]1C[C@@H](NC(=O)C(O)C2CC2)CN(c2ccc(C(F)(F)F)c3ncccc23)C1 (stereo partly drawn) [Compound 515, 2-Cyclopropyl-2-hydroxy-N-[(3R,5S)-5-methyl-1-(8-trifluoromethyl-quinolin-5-yl)-piperidin-3-yl]-acetamide]
< 1000 nM	CC(=O)N[C@@H]1C[C@H](C)CN(c2ccc(C(F)(F)F)c3ncccc23)C1 [Compound 517, N-[(3R,5S)-5-Methyl-1-(8-trifluoromethyl-quinolin-5-yl)-piperidin-3-yl]-acetamide]
< 1000 nM	C[C@H]1C[C@@H](NC(=O)NC2CC2)CN(c2ccc(C(F)(F)F)c3ncccc23)C1 [Compound 518, 1-Cyclopropyl-3-[(3R,5S)-5-methyl-1-(8-trifluoromethyl-quinolin-5-yl)-piperidin-3-yl]-urea]
< 1000 nM	C[C@H]1C[C@@H](NC(=O)C(C2CC2)N(C)C)CN(c2ccc(C(F)(F)F)c3ncccc23)C1 (stereo partly drawn) [Compound 519, 2-Cyclopropyl-2-dimethylamino-N-[(3R,5S)-5-methyl-1-(8-trifluoromethyl-quinolin-5-yl)-piperidin-3-yl]-acetamide]
< 1000 nM	C[C@H]1C[C@@H](NC(=O)[C@H](C)N(C)C)CN(c2ccc(C(F)(F)F)c3ncccc23)C1 [Compound 526, (S)-2-Dimethylamino-N-[(3R,5S)-5-methyl-1-(8-trifluoromethyl-quinolin-5-yl)-piperidin-3-yl]-propionamide]

The next lines start with the molecule.

SMILES	IC50
CC(C(=O)NC1CN(c2ccc(C#N)c3nccnc23)CC(F)(F)C1)N1CCOCC1 (stereo not drawn) [Compound 509, N-[1-(8-Cyano-quinoxalin-5-yl)-5,5-difluoro-piperidin-3-yl]-2-morpholin-4-yl-propionamide]	> 10000 nM
C[C@H]1C[C@@H](NC(=O)CC(C)(C)N)CN(c2ccc(C(F)(F)F)c3ncccc23)C1 [Compound 514, 3-Amino-3-methyl-N-[(3R,5S)-5-methyl-1-(8-trifluoromethyl-quinolin-5-yl)-piperidin-3-yl]-butyramide]	< 1000 nM
CC(C(=O)N[C@@H]1C[C@H](C)CN(c2ccc(C(F)(F)F)c3ncccc23)C1)N1CCN(C)CC1 (stereo partly drawn) [Compound 516, 2-(4-Methyl-piperazin-1-yl)-N-[(3R,5S)-5-methyl-1-(8-trifluoromethyl-quinolin-5-yl)-piperidin-3-yl]-propionamide]	< 1000 nM
N#Cc1ccc(N2CCC(F)C(N)C2)c2nccnc12 (stereo not drawn) [Compound 524, 8-(3-Amino-4-fluoro-piperidin-1-yl)-quinoxaline-5-carbonitrile hydrochloride]	1000 to 10000 nM
Cc1cnc2c(N3C[C@@H](C)C[C@@H](N)C3)ccc(C#N)c2n1 [Compound 525, 8-((3R,5S)-3-Amino-5-methyl-piperidin-1-yl)-3-methyl-quinoxaline-5-carbonitrile]	< 1000 nM
CN1CCC(NC(=O)C2CN(c3ccc(C#N)c4nccnc34)CC(F)(F)C2)CC1 (stereo not drawn) [Compound 529, 1-(8-Cyano-quinoxalin-5-yl)-5,5-difluoro-piperidine-3-carboxylic acid (1-methyl-piperidin-4-yl)-amide]	< 1000 nM
CN1CCC(NC(=O)C2CN(c3ccc(C#N)c4ncccc34)CC(F)(F)C2)CC1 (stereo not drawn) [Compound 530, 1-(8-Cyano-quinolin-5-yl)-5,5-difluoro-piperidine-3-carboxylic acid (1-methyl-piperidin-4-yl)-amide]	< 1000 nM
CN1CCC(CNC(=O)C2CN(c3ccc(C#N)c4ncccc34)CC(F)(F)C2)CC1 (stereo not drawn) [Compound 531, 1-(8-Cyano-quinolin-5-yl)-5,5-difluoro-piperidine-3-carboxylic Acid (1-methyl-piperidin-4-ylmethyl)-amide]	< 1000 nM
CCN1CCC(NC(=O)C2CN(c3ccc(C#N)c4ncccc34)CC(F)(F)C2)CC1 (stereo not drawn) [Compound 532, 1-(8-Cyano-quinolin-5-yl)-5,5-difluoro-piperidine-3-carboxylic Acid (1-ethyl-piperidin-4-yl)-amide]	< 1000 nM
CC1CC(C(=O)NCC2CCN(C)CC2)CN(c2ccc(C#N)c3nccnc23)C1 (stereo not drawn) [Compound 539, 1-(8-Cyano-quinoxalin-5-yl)-5-methyl-piperidine-3-carboxylic acid (1-methyl-piperidin-4-ylmethyl)-amide]	< 1000 nM
CCN1CCC(NC(=O)C2CC(C)CN(c3ccc(C#N)c4nccnc34)C2)CC1 (stereo not drawn) [Compound 540, 1-(8-Cyano-quinoxalin-5-yl)-5-methyl-piperidine-3-carboxylic acid (1-ethyl-piperidin-4-yl)-amide]	< 1000 nM
CC1CC(C(=O)NC2CCCN(C)C2)CN(c2ccc(C#N)c3nccnc23)C1 (stereo not drawn) [Compound 543, cis-1-(8-cyanoquinoxalin-5-yl)-5-methyl-N-(1-methyl-3-piperidyl) piperidine-3-carboxamide]	< 1000 nM
CC1CC(C(=O)N2CCN(C)CC2)CN(c2ccc(C(F)(F)F)c3ncccc23)C1 (stereo not drawn) [Compound 549, (4-Methyl-piperazin-1-yl)-[5-methyl-1-(8-trifluoromethyl-quinolin-5-yl)-piperidin-3-yl]-methanone]	1000 to 10000 nM
C[C@H]1C[C@@H](N)CN(c2ccc(C#N)c3nsnc23)C1 [Compound 552, 7-((3R,5S)-3-Amino-5-methyl-piperidin-1-yl)-benzo[1,2,5]thiadiazole-4-carbonitrile hydrochloride]	< 1000 nM
Cc1ncc(N2C[C@@H](C)C[C@@H](N)C2)c2cccnc12 [Compound 553, (3R,5S)-5-methyl-1-(8-methyl-1,7-naphthyridin-5-yl)piperidin-3-amine]	< 1000 nM
Cc1ncc(N2C[C@@H](C)C[C@@H](NC(=O)CC3CCN(C)CC3)C2)c2cccnc12 [Compound 554, N-[(3R,5S)-5-Methyl-1-(8-methyl-[1,7]naphthyridin-5-yl)-piperidin-3-yl]-2-(1-methyl-piperidin-4-yl)-acetamide]	< 1000 nM
Cc1ncc(N2C[C@@H](C)C[C@@H](NC(=O)CC(C)(C)O)C2)c2cccnc12 [Compound 555, 3-Hydroxy-3-methyl-N-[(3R,5S)-5-methyl-1-(8-methyl-[1,7]naphthyridin-5-yl)-piperidin-3-yl]-butyramide]	1000 to 10000 nM
Cc1ncc(N2C[C@@H](C)C[C@@H](NC(=O)CC3CN(C)C3)C2)c2cccnc12 [Compound 556, 2-(1-Methyl-azetidin-3-yl)-N-[(3R,5S)-5-methyl-1-(8-methyl-[1,7]naphthyridin-5-yl)-piperidin-3-yl]-acetamide]	1000 to 10000 nM
